These results are taken from PubChem BioAssay AID180 (DTP/NCI, 2004).

The assay concerns BDF1 mice, Adenocarcinoma 755 s.c., tumor weight T/C. As to the kind of experiment: NCI In Vivo Anticancer Drug Screen. Data for tumor model Adenocarcinoma 755 (subcutaneous) in B6D2F1 (BDF1) mice. Particulars: endpoint: mean tumor weight, higher = larger tumour. The essentials:
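Values express treated (T) relative to vehicle-dosed control (C) animals, based on survival or tumour size measured after compound treatment of mice bearing a transplanted tumour.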

The mark [1] stands for this setting: dose: 30.0 mg/kg/injection, schedule: Q01DX011 (ip), vehicle: carboxymethylcellulose (CMC).
Setting [2] is: dose: 60.0 mg/kg/injection, schedule: Q01DX011 (ip), vehicle: carboxymethylcellulose (CMC).
The mark [3] stands for this setting: dose: 25.0 mg/kg/injection, schedule: Q01DX011 (ip), vehicle: methylcellulose (MC).
The mark [4] stands for this setting: dose: 50.0 mg/kg/injection, schedule: Q01DX011 (ip), vehicle: methylcellulose (MC).
The mark [5] stands for this setting: dose: 100.0 mg/kg/injection, schedule: Q01DX011 (ip), vehicle: methylcellulose (MC).
Where [6] appears, read: dose: 15.0 mg/kg/injection, schedule: Q01DX011 (ip), vehicle: methylcellulose (MC).
[7] abbreviates: dose: 31.0 mg/kg/injection, schedule: Q01DX011 (ip), vehicle: methylcellulose (MC).
Where [8] appears, read: dose: 62.0 mg/kg/injection, schedule: Q01DX011 (ip), vehicle: methylcellulose (MC).

Each structure is given as a SMILES string. “And” between values parts separate entries of the source, which are not always exact repeats. Equal values may be shown once.

By T/C is commonly meant the result in the treated group divided by that in the control group, in per cent. For `Ic1ncnc2c1ncn2C1CCCCO1` (stereo not given), the T/C is 123 % of control (dose: 5.0 mg/kg/injection, schedule: Q01DX011 (ip), vehicle: other); 47 % of control (dose: 10.0 mg/kg/injection, schedule: Q01DX011 (ip), vehicle: other); 94 % of control (dose: 15.0 mg/kg/injection, schedule: Q01DX011 (ip), vehicle: other); 68 % of control and 70 % of control (dose: 20.0 mg/kg/injection, schedule: Q01DX011 (ip), vehicle: other); 100 % of control and 76 % of control (dose: 30.0 mg/kg/injection, schedule: Q01DX011 (ip), vehicle: other); 14 % of control (dose: 31.0 mg/kg/injection, schedule: Q01DX011 (ip), vehicle: other). In addition, the T/C (dose: 62.0 mg/kg/injection, schedule: Q01DX011 (ip), vehicle: other) is 14 % of control.
As to `Nc1nc2c(nc(I)n2C2OC(CO)C(O)C2O)c(=O)[nH]1` (stereo not given), the T/C is 94 % of control under setting [1]; 87 % of control under setting [2]; 26 % of control (dose: 120.0 mg/kg/injection, schedule: Q01DX011 (ip), vehicle: carboxymethylcellulose (CMC)); 40 % of control (dose: 240.0 mg/kg/injection, schedule: Q01DX011 (ip), vehicle: carboxymethylcellulose (CMC)).
On to `CCn1cnc2c(SC)nc(N)nc21`, for which the T/C runs as follows: (dose: 6.25 mg/kg/injection, schedule: Q01DX011 (ip), vehicle: methylcellulose (MC)) 74 % of control; (dose: 12.5 mg/kg/injection, schedule: Q01DX011 (ip), vehicle: methylcellulose (MC)) 30 % of control; under setting [3], 31 % of control; under setting [4], 7 % of control; under setting [5], 1 % of control.
Regarding `Nc1nc(SN=Nc2ccc(S(=O)(=O)O)cc2)c2[nH]cnc2n1`, the T/C runs as follows: (dose: 0.13 mg/kg/injection, schedule: Q01DX011 (sc), vehicle: alkali diluted with saline) 70 % of control; (dose: 0.25 mg/kg/injection, schedule: Q01DX011 (sc), vehicle: alkali diluted with saline) 48 % of control; (dose: 0.5 mg/kg/injection, schedule: Q01DX011 (ip), vehicle: alkali diluted with saline) 50 % of control; (dose: 0.5 mg/kg/injection, schedule: Q01DX011 (ip), vehicle: other) 46 % of control; (dose: 0.5 mg/kg/injection, schedule: Q01DX011 (sc), vehicle: alkali diluted with saline) 32 % of control; (dose: 1.0 mg/kg/injection, schedule: Q01DX011 (ip), vehicle: alkali diluted with saline) 12 % of control. Further, the T/C was 3 % of control (dose: 1.0 mg/kg/injection, schedule: Q01DX011 (ip), vehicle: other); 1 % of control (dose: 2.0 mg/kg/injection, schedule: Q01DX011 (ip), vehicle: alkali diluted with saline); 1 % of control (dose: 8.0 mg/kg/injection, schedule: Q01DX011 (ip), vehicle: alkali diluted with saline).
On to `C[N+]1(C)CCN(C(=O)CCCl)CC1`, for which the T/C (dose: 3.1 mg/kg/injection, schedule: Q01DX011 (ip), vehicle: other) is 47 % of control; the T/C (dose: 6.2 mg/kg/injection, schedule: Q01DX011 (ip), vehicle: other) is 93 % of control; the T/C (dose: 12.5 mg/kg/injection, schedule: Q01DX011 (ip), vehicle: other) is 66 % of control.
For `CCCCCCCCCCCCCCCCCCNC`, under “dose: 14.0 mg/kg/injection, schedule: Q01DX011 (ip), vehicle: carboxymethylcellulose (CMC)”, the T/C was 77 % of control.
For the compound `CCCn1cnc2c(SCC(=O)O)nc(N)nc21`, the T/C by setting is: under setting [3], 58 % of control; under setting [4], 37 % of control; under setting [5], 46 % of control; (dose: 200.0 mg/kg/injection, schedule: Q01DX011 (ip), vehicle: methylcellulose (MC)) 36 % of control.
Consider `Clc1ncnc2c1ncn2C1CCCCC1`, for which the T/C is, setting by setting: (dose: 6.25 mg/kg/injection, schedule: Q01DX011 (ip), vehicle: carboxymethylcellulose (CMC)) 91 % of control; (dose: 12.5 mg/kg/injection, schedule: Q01DX011 (ip), vehicle: carboxymethylcellulose (CMC)) 73 % of control; (dose: 25.0 mg/kg/injection, schedule: Q01DX011 (ip), vehicle: carboxymethylcellulose (CMC)) 81 % of control.
For the compound `CC(C)C(Nc1ncnc2nc[nH]c12)C(=O)O` (stereo not given), the T/C (dose: 12.0 mg/kg/injection, schedule: Q01DX011 (ip), vehicle: methylcellulose (MC)) was 180 % of control; the T/C under setting [3] was 230 % of control; the T/C under setting [4] was 239 % of control; the T/C under setting [5] was 192 % of control.
As to `Nc1nc(O)c(Br)c(=O)[nH]1`, the T/C runs as follows: under setting [6], 86 % of control; under setting [7], 69 % of control; under setting [8], 68 % of control.
Regarding `Cc1nc(Cl)c(C#N)c(C(F)(F)F)c1[N+](=O)[O-]`, the T/C under setting [1] was 59 % of control.
As to `Cc1ccc(CSc2ncnc3nc[nH]c23)c2ccccc12`, the T/C (dose: 75.0 mg/kg/injection, schedule: Q01DX011 (ip), vehicle: methylcellulose (MC)) was 54 % of control; the T/C (dose: 150.0 mg/kg/injection, schedule: Q01DX011 (ip), vehicle: methylcellulose (MC)) was 33 % of control; the T/C (dose: 300.0 mg/kg/injection, schedule: Q01DX011 (ip), vehicle: methylcellulose (MC)) was 38 % of control; the T/C (dose: 600.0 mg/kg/injection, schedule: Q01DX011 (ip), vehicle: methylcellulose (MC)) was 11 % of control.
As for `Cc1ccc(S(=O)(=O)NCCCCC(Nc2ncnc3nc[nH]c23)C(=O)O)cc1` (stereo not given), the T/C was 81 % of control (dose: 25.0 mg/kg/injection, schedule: Q01DX011 (ip), vehicle: saline); 21 % of control (dose: 75.0 mg/kg/injection, schedule: Q01DX011 (ip), vehicle: saline); 4 % of control (dose: 225.0 mg/kg/injection, schedule: Q01DX011 (ip), vehicle: saline).
For the compound `Nc1nc(N)c(N=O)c(Nc2ccc(I)cc2)n1`, the T/C (dose: 0.5 mg/kg/injection, schedule: Q01DX011 (ip), vehicle: carboxymethylcellulose (CMC)) was 70 % of control; the T/C (dose: 1.0 mg/kg/injection, schedule: Q01DX011 (ip), vehicle: carboxymethylcellulose (CMC)) was 79 % of control and 80 % of control; the T/C (dose: 2.0 mg/kg/injection, schedule: Q01DX011 (ip), vehicle: carboxymethylcellulose (CMC)) was 62 % of control; the T/C (dose: 8.0 mg/kg/injection, schedule: Q01DX011 (ip), vehicle: carboxymethylcellulose (CMC)) was 34 % of control and 54 % of control and 59 % of control; the T/C (dose: 32.0 mg/kg/injection, schedule: Q01DX011 (ip), vehicle: carboxymethylcellulose (CMC)) is 25 % of control and 28 % of control and 40 % of control; the T/C (dose: 64.0 mg/kg/injection, schedule: Q01DX011 (ip), vehicle: carboxymethylcellulose (CMC)) was 17 % of control. Further, where the note is “dose: 128.0 mg/kg/injection, schedule: Q01DX011 (ip), vehicle: carboxymethylcellulose (CMC)”, the T/C is 10 % of control.
Regarding `CCCN(C)/N=N/c1nc[nH]c1C(N)=O`, the T/C was 91 % of control (dose: 5.0 mg/kg/injection, schedule: Q01DX011 (ip), vehicle: carboxymethylcellulose (CMC)); 87 % of control (dose: 7.5 mg/kg/injection, schedule: Q01DX011 (ip), vehicle: carboxymethylcellulose (CMC)); 51 % of control (dose: 10.0 mg/kg/injection, schedule: Q01DX011 (ip), vehicle: carboxymethylcellulose (CMC)); 47 % of control (dose: 15.0 mg/kg/injection, schedule: Q01DX011 (ip), vehicle: carboxymethylcellulose (CMC)); 39 % of control (dose: 20.0 mg/kg/injection, schedule: Q01DX011 (ip), vehicle: carboxymethylcellulose (CMC)); 30 % of control under setting [1]. The T/C (dose: 40.0 mg/kg/injection, schedule: Q01DX011 (ip), vehicle: carboxymethylcellulose (CMC)) is 37 % of control.
Regarding `CCOCCNS(=O)(=O)c1ncnc2nc[nH]c12`, the T/C is 53 % of control (dose: 11.2 mg/kg/injection, schedule: Q01DX011 (ip), vehicle: carboxymethylcellulose (CMC)); 9 % of control (dose: 22.5 mg/kg/injection, schedule: Q01DX011 (ip), vehicle: carboxymethylcellulose (CMC)); 2 % of control under setting [1]; 3 % of control (dose: 45.0 mg/kg/injection, schedule: Q01DX011 (ip), vehicle: carboxymethylcellulose (CMC)); 1 % of control under setting [2].
With `O=c1[nH]cc(Br)c(=S)[nH]1`, the T/C under setting [6] was 64 % of control; the T/C under setting [7] is 86 % of control; the T/C under setting [8] is 80 % of control; the T/C (dose: 125.0 mg/kg/injection, schedule: Q01DX011 (ip), vehicle: methylcellulose (MC)) is 119 % of control; the T/C (dose: 250.0 mg/kg/injection, schedule: Q01DX011 (ip), vehicle: methylcellulose (MC)) was 109 % of control.
